Experimental data published in patent US4288438A, “Nitrogen-containing heterocyclic ring derivatives and analgesic and anti-inflammatory compositions and methods employing them” (priority 1976, dated 1981).

Columns and labels:
[1] = Acute toxicity, rat (Table 4); format: in vivo, Male Wister rats; conditions: 500 mg/Kg oral, 7 days, deaths/animals
Method: Male Wister rats (weighting 130-170 g.), one group being 5 rats, fasted overnight were used in this test.
(§1) In addition, the test samples used in the aforesaid tests (a), (b), (c) and (d) were prepared by suspending the test compounds, in the cases of using the compounds of Test Nos. 1,2,4,5,6,8,9,10,11, 16-21 and p henylbutazone,in an aqueous 0.5% methyl cellulose solution, dissolving the test compounds, in the cases of using the compounds of Test Nos. 13,14 and 15, in aqueous solution of 0.5% methyl cellulose, and further dissolving the test compounds, in the cases of using the compounds of Test Nos. 3,7 and 12 and aminopyrine, in distilled water.

[2] = Acute toxicity, mouse (Table 4); format: in vivo
[3] = system: Hyperthemia caused by Brewer's yeast; assay: Antipyretic effect, Brewer's yeast hyperthermia, rectal temperature (Table 3); format: in vivo, Male Wister rats; conditions: rat, 50mg/kg p.o., in °C (unit assumed); for Rectal temperature (mean ± SE) 1 hour / Rectal temperature (mean ± SE) 2 hours / Rectal temperature (mean ± SE) 4 hours: * p<0.05 vs before for Test Nos. 1, 2 and Aminopyrine; for Rectal temperature (mean ± SE) 6 hours: * p<0.05 vs before for Test No. 2 and Aminopyrine; for Rectal temperature (mean ± SE) before: before administration
Method: Male Wister rats (weighting 130-150 g.), one group being 5 rats, were used. Hyperthemia was caused by subcutaneous injection of 2 ml./rat of 20% Brewer's yeast suspension. 18 hours later, the rats showing a rise in temperature exceeding 1° C. were selected and allocated into groups each consisting of 5 rats. The sample was orally administered and then the body temperature was measured with the passage of time for 6 hours since then. In addition, the body temperature was measured by measuring the temperature in the rectum by means of a thermister thermometer.
as §1

[4] = system: Permeability (dye leaked in the abdominal cavity); assay: Whittle's method: permeability, dye leaked in the abdominal cavity, oral (Table 2); format: in vivo, Male ICR-Mice
Method: (b) Whittle's method (British J. Pharmacol.; 22, 246-253 (1964))
(§2) Male ICR-Mice (weighting 25-35 g.), one group being 12 mice, fasted overnight were used in this test. The sample was orally administered, and 20 minutes after, 5 ml./Kg. of 0.4% Evance blue was injected by intravenously and further 10 minutes after, 10 ml./Kg. of 0.6% acetic acid was injected by intraperitoneally. The number of writhings after 20 minutes since the administration of acetic acid was recorded and 10 minutes after since then, the mice were killed by dislocation of the neck, the dye leaked in the abdominal cavity was washed out with 5 ml. of 0.9% saline to make the total amount 10 ml., and thereafter furs, blood corpuscles, etc., intermingled were removed by centrifugal separation at 3,000 r.p.m. for 5 minutes. Furthermore, for preventing turbidity caused by protein, 0.1 ml. of an aqueous 0.1 normal sodium hydroxide was added and then the absorbance at 590 nm was measured. The inhibition ratio of the sample administered rat groups to control groups was calculated.
as §1

[5] = system: writhings (acetic acid); assay: Whittle's method: acetic acid writhing, oral (Table 2); format: in vivo, Male ICR-Mice; conditions: mouse, 0.6% acetic acid i.p.
Method: as §2, §1

[6] = system: Carrageenin-induced edema; assay: Carrageenin-induced edema, hind paw, oral (Table 1); format: in vivo, Male Wister rats; conditions: rat, 1 hour before Carrageenin, edema weight after 3 hours; for inhibition in vivo at 50 mg/kg: po; for Inhibition (%) p.o. 50mg/kg / inhibition in vivo at 50 mg/kg: p.o. 50 mg/kg
Method: (a) Carrageenin-induced edema
Male Wister rats (weighting 130-170 g.), one group being 6 rats, fasted overnight were used. According to […] [Proc. Soc. […] After 3 hours, each rat was sacrificed by chloroform and the hind paw was cut and weighed immediately. By using the value obtained by subtracting the weight of the untreated hind paw from the weight of the hind paw having injected therein the Carrageenin as the weight of edema, the inhibitory ratio of the sample administered rat groups to control groups was calculated. The sample was orally administered one hour before the injection of Carrageenin.
as §1

[7] = deaths/animals, method given for rats only (500 mg/Kg oral, 7 days)
[8] = mouse, 25 mg/kg p.o., Evance blue i.v., acetic acid i.p., 590 nm
[9] = mouse, 50 mg/kg p.o., Evance blue i.v., acetic acid i.p., 590 nm

Structure (SMILES)	Inhibition (%) Permeability 25mg/kg p.o. [4, 8]	Inhibition (%) Permeability 50mg/kg p.o. [4, 9]	Inhibition (%) Writhing S 25mg/kg p.o. [5]	Inhibition (%) Writhing S 50mg/kg p.o. [5]	Inhibition (%) p.o. 50mg/kg [6]	inhibition in vivo at 50 mg/kg [6]	Inhibition (%) p.o. 100mg/kg [6]	other results
O=c1cc(-c2ccccc2)cc2n1CCS2 [Test No. 10]	–	–	–	–	–	–	–	Number of deaths Rat [1]: 0/5; Number of deaths Mouse [2, 7]: 0/5
CN1CCCn2c1cc(-c1ccccc1)cc2=O [Test No. 1]	18.0%	44.4%	41.8%	87.6%	71.5%	–	–	Rectal temperature (mean ± SE) 1 hour [3]: 37.07 ± 0.15; Rectal temperature (mean ± SE) 2 hours [3]: 36.17 ± 0.32; Rectal temperature (mean ± SE) 4 hours [3]: 36.12 ± 0.17; Rectal temperature (mean ± SE) 6 hours [3]: 38.52 ± 0.47; Rectal temperature (mean ± SE) before [3]: 38.82 ± 0.05
CCN1CCn2c1cc(-c1ccccc1)cc2=O [Test No. 9]	–	–	–	–	–	–	–	Number of deaths Rat [1]: 0/5; Number of deaths Mouse [2, 7]: 0/5
CN1CCCn2c1cc1c(c2=O)CCCC1 [Test No. 15, 1-methyl-6-oxo-1,2,3,4,6,7,8,9,10-nonahydropyrimido[1,2-b]isoquinoline]	–	–	–	–	–	52.4%	–	–
CC1CNc2cc(-c3ccccc3)cc(=O)n21 (centres unmarked) [Test No. 20]	–	–	–	–	72.2%	–	–	–
Cc1cc2n(c(=O)c1)CCN2C [Test No. 3, 1,7-dimethyl-5-oxo-1,2,3,5-tetrahydroimidazo[1,2-a]pyridine]	18.5%	46.2%	52.1%	75.3%	–	52.3%	51.5%	Number of deaths Mouse [2, 7]: 1/5
CN1CCCn2c1cc(-c1ccc(Cl)cc1)cc2=O [Test No. 11]	–	–	–	–	47.1%	–	–	–
CN1CCn2c1cc1c(c2=O)CCC1 [Test No. 13, 1-methyl-5-oxo-1,2,3,6,7,8-hexahydroimidazo[1,2-b]1H-2-pyrindine]	–	–	–	–	57.1%	–	–	–
CN1CCn2c1cc1c(c2=O)CCCC1 [Test No. 14, 1-methyl-5-oxo-1,2,3,5,6,7,8,9-octahydroimidazo[1,2-b]isoquinoline]	–	–	–	–	–	64.1%	–	–
Cc1c(N(C)C)c(=O)n(-c2ccccc2)n1C [Aminopyrine, reference compound]	28.5%	41.7%	29.6%	58.1%	–	–	–	Rectal temperature (mean ± SE) 1 hour [3]: 37.92 ± 0.09; Rectal temperature (mean ± SE) 2 hours [3]: 37.49 ± 0.10; Rectal temperature (mean ± SE) 4 hours [3]: 37.39 ± 0.07; Rectal temperature (mean ± SE) 6 hours [3]: 37.76 ± 0.18; Rectal temperature (mean ± SE) before [3]: 39.24 ± 0.14
Cc1cc2n(c(=O)c1)CCCN2C [Test No. 8]	–	–	35.6%	66.4%	53.3%	–	–	Inhibition (%) Permeability 25mg/kg p.o. ([4]; 25 mg/kg): 32.4%; Inhibition (%) Permeability 50mg/kg p.o. ([4]; 50 mg/kg): 25.8%
Cc1c(-c2ccccc2)cc2n(c1=O)CCCN2C [Test No. 17, 1,7-dimethyl-6-oxo-8-phenyl-1,2,3,4,6-pentahydropyrido[1,2-a]pyrimidine]	–	–	–	–	–	45.7%	–	–
O=c1cc(-c2ccccc2)cc2n1CC[S+]2[O-] (centres unmarked) [Test No. 4]	–	–	–	–	–	–	–	Number of deaths Rat [1]: 2/5; Number of deaths Mouse [2, 7]: 1/5
Cc1cc(=O)n2c(c1-c1ccccc1)NCCC2 [Test No. 19]	–	–	–	–	–	–	46.7%	–
CCCCC1C(=O)N(c2ccccc2)N(c2ccccc2)C1=O [phenylbutazone, reference compound]	–	–	–	–	–	44.5%	51.2%	–
Cc1cc2n(c(=O)c1-c1ccccc1)CCN2C [Test No. 16, 1,7-dimethyl-5-oxo-6-phenyl-1,2,3,5-tetrahydroimidazo[1,2-a]pyridine]	–	–	–	–	–	47.7%	–	–
CN1CCn2c1ccc(-c1ccccc1)c2=O [Test No. 7, 1-methyl-5-oxo-6-phenyl-1,2,3,5-tetrahydroimidazo[1,2-a]pyridine]	49.3%	63.8%	59.1%	95.3%	–	75%	79.5%	–
CN1CCn2c1cc(-c1ccccc1)cc2=O [Test No. 5]	20.0%	42.1%	41.2%	67.4%	–	–	–	–
O=c1cc(-c2ccccc2)cc2sccn12 [Test No. 21]	–	–	–	–	46.9%	–	–	–
O=c1cc(-c2ccccc2)cc2n1CCCN2 [Test No. 6]	28.4%	59.0%	69.0%	91.5%	72.7%	–	80.5%	–
O=c1cc(-c2ccccc2)cc2n1CCN2 [Test No. 2]	26.9%	51.1%	28.9%	52.6%	71.6%	–	76.1%	Rectal temperature (mean ± SE) 1 hour [3]: 37.80 ± 0.10; Rectal temperature (mean ± SE) 2 hours [3]: 36.74 ± 0.24; Rectal temperature (mean ± SE) 4 hours [3]: 36.77 ± 0.39; Rectal temperature (mean ± SE) 6 hours [3]: 37.51 ± 0.57; Rectal temperature (mean ± SE) before [3]: 38.89 ± 0.21; Number of deaths Mouse ([2]; in vivo): 0/5
Cc1cc(=O)n2c(c1-c1ccccc1)N(C)CC2 [Test No. 18, 1,7-dimethyl-5-oxo-8-phenyl-1,2,3,5-tetrahydroimidazo[1,2-a]pyridine]	–	–	–	–	–	–	41.0%	–
